Laboratory results reported in BindingDB's records for doi:10.7270/Q2NC5ZS3 (Burnham Center For Chemical Genomics, 2012).

Biological target: T1, Corticotropin-releasing factor-binding protein (Homo sapiens, UniProt P24387)
T1 sequence (P24387 whole entry): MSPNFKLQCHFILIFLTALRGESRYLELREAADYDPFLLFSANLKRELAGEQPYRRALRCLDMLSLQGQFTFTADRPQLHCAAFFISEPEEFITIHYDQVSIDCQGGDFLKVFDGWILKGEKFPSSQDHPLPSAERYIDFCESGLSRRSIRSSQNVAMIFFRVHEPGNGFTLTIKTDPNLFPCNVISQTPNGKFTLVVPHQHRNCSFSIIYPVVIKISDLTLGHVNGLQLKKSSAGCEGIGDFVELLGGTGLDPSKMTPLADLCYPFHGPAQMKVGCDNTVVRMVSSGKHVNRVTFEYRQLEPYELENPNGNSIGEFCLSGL

| Structure (SMILES) | IC50 [µM] |
| --- | --- |
| N#CC(C(=O)COc1ccc(Cl)cc1)c1nc2ccccc2s1 (centres undefined) | > 20 |
| Cc1ccc2nc(N3C(=O)C(=O)C(C(=O)c4ccco4)C3c3cccc(O)c3)sc2c1 (centres undefined) | > 20 |
| N#CC(C(=O)Cc1cccc2ccccc12)c1nc2ccccc2s1 (centres undefined) [(2Z)-2-(3H-1,3-benzothiazol-2-ylidene)-4-naphthalen-1-yl-3-oxobutanenitrile] | 11.3 |
| Cc1cc(=O)oc2c1ccc1oc(C(N=O)c3ccccc3)c(C)c12 (centres undefined) [4,9-dimethyl-8-(N-oxidanyl-C-phenyl-carbonimidoyl)furo[2,3-h]chromen-2-one] | > 20 |
| Cc1ccc2nc(N3C(=O)C(=O)C(C(=O)c4ccc(C)o4)C3c3cccc(O)c3)sc2c1 (centres undefined) [4-hydroxy-2-(3-hydroxyphenyl)-1-(6-methyl-1,3-benzothiazol-2-yl)-3-(5-methylfuran-2-carbonyl)-2H-pyrrol-5-one] | 10.4 |
| O=C(O)c1ccc(CN=Nc2cccc(C(F)(F)F)c2)cc1 | > 20 |
| COC(=O)c1ccc(C(=O)C(C#N)c2nc3ccccc3s2)cc1 (centres undefined) [4-[(2Z)-2-(3H-1,3-benzothiazol-2-ylidene)-2-cyano-1-oxoethyl]benzoic acid methyl ester] | > 20 |
| O=NCc1ccc(Oc2ccc(F)cc2)c([N+](=O)[O-])c1 [N-[[4-(4-fluorophenoxy)-3-nitrophenyl]methylidene]hydroxylamine] | 17.5 |
| CN1c2ccccc2C(=O)C(C(=S)Nc2ccc(Cl)cc2)S1(=O)=O (centres undefined) [N-(4-chlorophenyl)-4-hydroxy-1-methyl-2,2-dioxo-1,2-dihydro-2lambda~6~,1-benzothiazine-3-carbothioamide] | > 20 |

Further lines, results first:

| IC50 [µM] | Structure (SMILES) |
| --- | --- |
| 1 | Cn1c(O)c(N=Nc2ccc([N+](=O)[O-])cc2)sc1=S [MLS002608645] |
| > 20 | COc1ccc(/C=N/OCC(=O)NNC2=c3cc(Br)ccc3=NC2=O)cc1 [MLS000587830] |
| 9.4 | COc1ccc(C(C)N=Nc2ccc([N+](=O)[O-])cc2S(=O)(=O)Nc2ccccc2C(=O)O)c(OC)c1 (centres undefined) [MLS002249507] |
| 15.5 | Cc1ccc(-n2[nH]c(C)c(CN=Nc3ccc([N+](=O)[O-])cc3[N+](=O)[O-])c2=O)cc1 [SMR000171521] |
| > 20 | Cc1ccc(S(=O)(=O)N(CC(=O)NNC2=c3ccccc3=NC2=O)c2ccc(C)c(C)c2)cc1 [SMR000207608] |
